The values that follow come from patent US3987189A, “Anti-inflammatory composition and method containing cyclic 2-furfural-acetals” (Henkel & Cie G.m.b.H., priority 1973, dated 1976).

Series [1] in a line: Orienting toxicity test, LD 50. The following applies: in vivo. How it is done:
In the following experiments listed below the cyclic 2-furfural-acetals to be used according to the invention were tested for their anti-inflammatoryproperties. First an orienting experiment was carried out to determine their toxicity, in order to be able to determine the test dosages for the further experiments.

Series [2] deals with carrageenin induced edema of the rats paw. As to the kind of experiment: Rat's paw test with carrageenin induced edema (amputation method). Format: in vivo. The settings on record: 30 minutes before carrageenin, paws weighed 3 hours after carrageenin, read-out: Rat's paw test with carrageenin induced edema, checking (% inhibition). How it is done:
As a determination of the suitability of the compounds for preventing the inflammation caused by sunburn, a variation of the rats paw test was used, namely the so-called amputation method was used, which is described by C. H. Winter in the Journal of Pharmacology and Experimental Therapeutics 141, p.369 (1963). In the experiments, Carrageenin is used as the substance causing inflammation.
While only the Carrageenin solution was administered to the control animals, the test animals were given the different test substances by injection or by administration per os in the amount given in Table I below, 30 minutes before its injection with the Carrageenin solution. The test animals were killed 3 hours after the injection of the carrageenin solution causing the inflammation, and the weight of the paws was determined. The inhibiting of the development of the edema of the rats paws after the subplantar injection of the compound checking inflammation was used as an index of the degree of activity and was expressed in % inhibition.
On the basis of general practice, the results of the rats paw test serve as a base for the evaluation of a compound as a sunburn control agent.

Series [3] can be described thus: UV-spectrum, absorption maxima. Format: physicochemical. The source says: In addition, the absorption maxima of the test substances in the ultraviolet region are given in the following Table I. Since with some of the test substances the absorption maxima lie conveniently in the ultraviolet region producing erythema, which extends from 280 to 320 mμ these, besides their inflammation-preventing action as sunburn control substances, show themselves simultaneously as useful means for protection from the sun.

Read-outs that look alike come from different tables or passages of the source.

The term LD50 denotes the dose expected to kill half of the subjects tested. A high value points to a less toxic substance. In turn, `Cc1ccc(C2OC(C)C(C)O2)o1` (centres unmarked) [Compound J, 2-(5'-methylfuryl-2')-4,5-dimethyl-1,3-dioxolane] yielded an LD50 in series [1] of 1000 mg/kg. Besides, the inhibition in vivo at 1000 mg/kg in series [2] (po, 1000 mgm/kg p.o.) amounted to 48.4%. Further, in series [3], the “UV-spectrum λ-max” value is reported as 300 mμ and the “UV-spectrum logε at λ-max” value is 1.96.
For the molecule `CCCCCCCCCCC1COC(c2ccc([N+](=O)[O-])o2)O1` (centres unmarked) [Compound V, 2-(5'-nitrofuryl-2')-4-n-decyl-1,3-dioxolane], in series [1], the LD50 came to 1000 mg/kg. Moreover, the inhibition in vivo at 1000 mg/kg in series [2] (po, 1000 mgm/kg p.o.) came out at 18.3%.
On to `CC(C)C1OC(c2ccco2)OCC1(C)C` (centres unmarked) [Compound F, 2-(furyl-2')-4-isopropyl-5,5-dimethyl-1,3-dioxane], for which the LD50 in series [1] was 300 mg/kg. Further, in series [2] (po, 250 mgm/kg p.o.), the inhibition in vivo at 250 mg/kg was 48.4%. For the same molecule, in series [3], the “UV-spectrum λ-max” value was 300 mμ and the “UV-spectrum logε at λ-max” value is recorded as 2.35.
In turn, `CCCCCCCCCCCCCCC1COC(c2ccc([N+](=O)[O-])o2)O1` (centres unmarked) [Compound N, 2-(5'-nitrofuryl-2')-4-tetradecyl-1,3-dioxolane] came in with an LD50 in series [1] of 1000 mg/kg. In addition, the inhibition in vivo at 1000 mg/kg in series [2] (ip, 1000 mgm/kg i.p.) was 10.5%.
As for `CC1COC(c2ccc([N+](=O)[O-])o2)O1` (centres unmarked) [Compound R, 2-(5'-nitrofuryl-2')-4-methyl-1,3-dioxolane], the 50% lethal dose (LD50) in series [1] is 750 mg/kg. Also, the inhibition in vivo at 50 mg/kg in series [2] (ip, 50 mgm/kg i.p.) came to 36.6%. Further, in series [3], the “UV-spectrum λ-max” value turned out to be 303 mμ and the “UV-spectrum logε at λ-max” value is listed as 3.84.
`CCCC1(C)COC(c2ccc([N+](=O)[O-])o2)OC1` (centres unmarked) [Compound C, 2-(5'-nitrofuryl-2')-5-methyl-5-propyl-1,3-dioxane] had an LD50 in series [1] of 300 mg/kg. Also, in series [2] (po, 250 mgm/kg p.o.), the inhibition in vivo at 250 mg/kg amounted to 16.5%. In series [3], the “UV-spectrum λ-max” value is recorded as 302 mμ and the “UV-spectrum logε at λ-max” value is recorded as 3.98.
In turn, `CC(C)C1OC(c2ccc([N+](=O)[O-])o2)OCC1(C)C` (centres unmarked) [Compound Q, 2-(5'-nitrofuryl-2')-4-isopropyl-5,5-dimethyl-1,3-dioxane] had an LD50 in series [1] of 1750 mg/kg. Besides, the inhibition in vivo at 750 mg/kg in series [2] (po, 750 mgm/kg p.o.) worked out at 34.1%. Also, in series [3], the “UV-spectrum λ-max” value is 301 mμ and the “UV-spectrum logε at λ-max” value is 4.07.
Regarding `CC1(C)OC(c2ccc([N+](=O)[O-])o2)OC1(C)C` [Compound D, 2-(5'-nitrofuryl-2')-4,4,5,5-tetramethyl-1,3-dioxolane], in series [1], the LD50 came out at 810 mg/kg. Moreover, the inhibition in vivo at 500 mg/kg in series [2] (po, 500 mgm/kg p.o.) was 16.5%. Besides, in series [3], the “UV-spectrum λ-max” value is 303 mμ and the “UV-spectrum logε at λ-max” value came out at 4.01.
Regarding `CC1CC(C)(C)OC(c2ccc([N+](=O)[O-])o2)O1` (centres unmarked) [Compound L, 2-(5'-nitrofuryl-2')-4,4,6-trimethyl-1,3-dioxane], the LD50 in series [1] amounted to 1130 mg/kg. The inhibition in vivo at 500 mg/kg in series [2] (po, 500 mgm/kg p.o.) was determined as 21.9%. Besides, in series [3], the “UV-spectrum λ-max” value was found to be 304 mμ and the “UV-spectrum logε at λ-max” value came to 4.01.
In turn, `O=[N+]([O-])c1ccc(C2OCCCCO2)o1` [Compound B, 2-(5'-nitrofuryl-2')-1,3-dioxepane] showed an LD50 in series [1] of 1750 mg/kg. The inhibition in vivo at 500 mg/kg in series [2] (po, 500 mgm/kg p.o.) was determined as 12.3%.
With `CC1OC(c2ccc([N+](=O)[O-])o2)OC(C)C1C` (centres unmarked) [Compound K, 2-(5'-Nitrofuryl-2')-4,5,6-trimethyl-1,3-dioxane], in series [1], the LD50 came to 690 mg/kg. For the same molecule, in series [2] (po, 250 mgm/kg p.o.), the inhibition in vivo at 250 mg/kg is 30.8%. Besides, in series [3], the “UV-spectrum λ-max” value is recorded as 303 mμ and the “UV-spectrum logε at λ-max” value stood at 3.76.
`O=[N+]([O-])c1ccc(C2OC3CCCCC3O2)o1` (centres unmarked) [Compound E, 2-(5'-nitrofuryl-2')-4,5-tetramethylene-1,3-dioxolane] showed an LD50 in series [1] of 1000 mg/kg. In addition, the inhibition in vivo at 500 mg/kg in series [2] (po, 500 mgm/kg p.o.) stood at 17.7%. In series [3], the “UV-spectrum λ-max” value turned out to be 305 mμ and the “UV-spectrum logε at λ-max” value was found to be 4.01.
With `c1coc(C2OC3CCCCC3O2)c1` (centres unmarked) [Compound Y, 2-(Furyl-2')-4,5-tetramethylene-1,3-dioxolane], the LD50 in series [1] is 300 mg/kg. Besides, the inhibition in vivo at 250 mg/kg in series [2] (po, 250 mgm/kg p.o.) is 32.3%.
For `CCCCC1COC(c2ccc([N+](=O)[O-])o2)O1` (centres unmarked) [Compound S, 2-(5'-nitrofuryl-2')-4-n-butyl-1,3-dioxolane], in series [1], the LD50 is 810 mg/kg. The inhibition in vivo at 500 mg/kg in series [2] (ip, 500 mgm/kg i.p.) worked out at 10.6%.
Consider `CCCCCCCCCCCCCCCCC1COC(c2ccc([N+](=O)[O-])o2)O1` (centres unmarked) [Compound O, 2-(5'-nitrofuryl-2')-4-hexadecyl-1,3-dioxolane], for which the LD50 in series [1] was determined as 2500 mg/kg. Moreover, the inhibition in vivo at 250 mg/kg in series [2] (ip, 250 mgm/kg i.p.) came out at 29.6%.
Molecule `CC1OC(c2ccco2)OC1C` (centres unmarked) [Compound G, 2-(furyl-2')-4,5-dimethyl-1,3-dioxolane] registered an LD50 in series [1] of 300 mg/kg. Besides, the inhibition in vivo at 250 mg/kg in series [2] (po, 250 mgm/kg p.o.) was determined as 14.5%. In addition, in series [3], the “UV-spectrum λ-max” value is 300 mμ and the “UV-spectrum logε at λ-max” value is 2.13.
Consider `O=[N+]([O-])c1ccc(C2OCCO2)o1` [Compound A, 2-(5'-Nitrofuryl-2')-1,3-dioxolane], for which, in series [1], the LD50 came out at 810 mg/kg. Moreover, the inhibition in vivo at 500 mg/kg in series [2] (po, 500 mgm/kg p.o.) is 16.2%. For the same molecule, in series [3], the “UV-spectrum λ-max” value was 302 mμ and the “UV-spectrum logε at λ-max” value stood at 4.02.
For the molecule `O=[N+]([O-])c1ccc(C2OCCCO2)o1` [Compound W, 2-(5'-nitrofuryl-2')-1,3-dioxane], the LD50 in series [1] was found to be 750 mg/kg. Besides, the inhibition in vivo at 500 mg/kg in series [2] (po, 500 mgm/kg p.o.) stood at 16.9%. For the same molecule, in series [3], the “UV-spectrum λ-max” value is 303 mμ and the “UV-spectrum logε at λ-max” value is reported as 3.79.
For the molecule `CC1CCOC(c2ccc([N+](=O)[O-])o2)O1` (centres unmarked) [Compound X, 2-(5'-nitrofuryl-2')-4-methyl-1,3-dioxane], the LD50 in series [1] was 750 mg/kg. In addition, in series [2] (po, 500 mgm/kg p.o.), the inhibition in vivo at 500 mg/kg was determined as 12.1%. For the same molecule, in series [3], the “UV-spectrum λ-max” value was determined as 303 mμ and the “UV-spectrum logε at λ-max” value was determined as 3.87.
`Cc1ccc(C2OCC(C)(C)C(C(C)C)O2)o1` (centres unmarked) [Compound H, 2-(5'-methylfuryl-2')-4-isopropyl-5,5-dimethyl-1,3-dioxane] returned an LD50 in series [1] of 1000 mg/kg. In addition, in series [2] (po, 1000 mgm/kg p.o.), the inhibition in vivo at 1000 mg/kg worked out at 50%. In series [3], the “UV-spectrum λ-max” value came to 300 mμ and the “UV-spectrum logε at λ-max” value came to 2.08.
Molecule `CCCCCCC1COC(c2ccc([N+](=O)[O-])o2)O1` (centres unmarked) [Compound T, 2-(5'-nitrofuryl-2')-4-n-hexyl-1,3-dioxolane] had an LD50 in series [1] of 1000 mg/kg. Moreover, the inhibition in vivo at 1000 mg/kg in series [2] (po, 1000 mgm/kg p.o.) amounted to 12.8%.
Regarding `CCCCCCCCCCCCC1COC(c2ccc([N+](=O)[O-])o2)O1` (centres unmarked) [Compound M, 2-(5'-nitrofuryl-2')-4-dodecyl-1,3-dioxolane], in series [1], the LD50 came out at 1000 mg/kg. Also, in series [2] (ip, 1000 mgm/kg i.p.), the inhibition in vivo at 1000 mg/kg came out at 18.3%.
With `CCCCCCCCC1COC(c2ccc([N+](=O)[O-])o2)O1` (centres unmarked) [Compound U, 2-(5'-nitrofuryl-2')-4-n-octyl-1,3-dioxolane], the LD50 in series [1] worked out at 5000 mg/kg. Moreover, the inhibition in vivo at 250 mg/kg in series [2] (ip, 250 mgm/kg i.p.) was determined as 17%.
